Test results: ChEMBL document CHEMBL5532706, “Passifetilactones A-E, Fatty Acid Lactones from the Fruit and Flowers of Passiflora foetida with Cytotoxic Activity” (J Nat Prod, 2024)
Activity calls are given as the source filed them. The calls are words filed in the database; no cut-off is given here.

How the values were obtained:
[1] = Cytotoxicity against human MMNK-1 cells assessed as inhibition of cell growth incubated for 48 hrs by MTT assay; assay type: toxicity, cell-based; settings: for IC50 at 48 h: MMNK-1 cells
[2] = tested on: KKUM213; experiment: Cytotoxicity against human KKUM213 cells assessed as inhibition of cell growth incubated for 48 hrs by MTT assay; assay type: functional, cell-based; settings: KKU-213A
[3] = tested on: KKU-M055; experiment: Cytotoxicity against human KKUM055 cells assessed as inhibition of cell growth incubated for 48 hrs by MTT assay; assay type: functional, cell-based; settings: for IC50: KKU-M055, 48 h
[4] = tested on: A549; experiment: Cytotoxicity against human A549 cells assessed as inhibition of cell growth incubated for 72 hrs by MTT assay; assay type: functional, cell-based; settings: A549, 72 h
[5] = tested on: HeLa; experiment: Cytotoxicity against human HeLa cells assessed as inhibition of cell growth incubated for 72 hrs by MTT assay; assay type: functional, cell-based
[6] = tested on: PC-3; experiment: Cytotoxicity against human PC-3 cells assessed as inhibition of cell growth incubated for 72 hrs by MTT assay; assay type: functional, cell-based; settings: PC-3, 72 h
[7] = Cytotoxicity against African green monkey Vero cells assessed as inhibition of cell growth incubated for 72 hrs by MTT assay; assay type: toxicity, cell-based; settings: African green monkey (Chlorocebus sabaeus)
[8] = tested on: KKUM213; experiment: Induction of apoptosis in human KKUM213 cells assessed as total apoptotic cells at 7 ug/ml incubated for 48 hrs by Annexin V-FITC/PI staining based flow cytometry analysis (reference value: 17.61%); assay type: functional, KKU-213A; settings: dose 7 µg/ml
[9] = tested on: KKU-M055; experiment: Induction of apoptosis in human KKUM055 cells assessed as total apoptotic cells at 2 ug/ml incubated for 48 hrs by Annexin V-FITC/PI staining based flow cytometry analysis (reference value: 22.11%); assay type: functional; settings: dose 2 µg/ml
[10] = tested on: KKU-M055; experiment: Induction of apoptosis in human KKUM055 cells assessed as total apoptotic cells at 7 ug/ml incubated for 48 hrs by Annexin V-FITC/PI staining based flow cytometry analysis (reference value: 22.11%); assay type: functional; settings: dose 7 µg/ml
[11] = tested on: KKUM213; experiment: Induction of apoptosis in human KKUM213 cells assessed as total apoptotic cells at 2 ug/ml incubated for 48 hrs by Annexin V-FITC/PI staining based flow cytometry analysis (reference value: 17.61%); assay type: functional, KKU-213A; settings: dose 2 µg/ml
[12] = tested on: KKU-M055; experiment: Induction of apoptosis in human KKUM055 cells assessed as total apoptotic cells at 7 ug/ml incubated for 48 hrs by Annexin V-FITC/PI staining based flow cytometry analysis (reference value: 16.44%); assay type: functional; settings: dose 7 µg/ml
[13] = tested on: KKUM213; experiment: Induction of apoptosis in human KKUM213 cells assessed as total apoptotic cells at 2 ug/ml incubated for 48 hrs by Annexin V-FITC/PI staining based flow cytometry analysis (reference value: 18.14%); assay type: functional, KKU-213A; settings: dose 2 µg/ml
[14] = tested on: KKUM213; experiment: Induction of apoptosis in human KKUM213 cells assessed as total apoptotic cells at 7 ug/ml incubated for 48 hrs by Annexin V-FITC/PI staining based flow cytometry analysis (reference value: 18.14%); assay type: functional, KKU-213A; settings: dose 7 µg/ml
[15] = tested on: KKU-M055; experiment: Induction of apoptosis in human KKUM055 cells assessed as total apoptotic cells at 2 ug/ml incubated for 48 hrs by Annexin V-FITC/PI staining based flow cytometry analysis (reference value: 16.44%); assay type: functional; settings: dose 2 µg/ml

Row | SMILES | Activity ([1]; mmnk-1, 48 h, time 48 hrs) | IC50 [2] | IC50 [3] | IC50 at 48 h [1] | IC50 [4] | IC50 [5] | IC50 [6] | IC50 at 72 h [7] | Activity [8] | Activity [9] | Activity [10] | Activity [11] | Activity [12] | Activity [13] | Activity [14] | Activity [15] | Activity [2] | Activity [3]
1 | CCCCCCCCCCCCCCC[C@@H](O)[C@@H]1C=CC(=O)O1 | Non-Toxic | 51.7 µM | 26.3 µM |  |  |  |  |  |  |  |  |  |  |  |  |  |  | 
2 | CCCCCC/C=C\CCCCCCC[C@H]1CC=CC(=O)O1 |  | 22.5 µM | 31 µM | 52.9 µM | 16.9 µM | 11.2 µM | 23.6 µM | 21.2 µM |  |  |  |  |  |  |  |  |  | 
3 | CCCCCCCCCCCCCCC[C@H]1CC=CC(=O)O1 |  | 18.2 µM | 19.8 µM | 39.3 µM | 12.2 µM | 12.2 µM | 12.2 µM | 12.2 µM | 19.95% | 21.29% | 43.4% | 20.64% |  |  |  |  |  | 
4 | CCCCCCCCCCCCCCC[C@@H]1OC(=O)C=C[C@@H]1O |  | 17 µM | 25.9 µM | 57.4 µM | 3.7 µM | 3.7 µM | 3.7 µM | 3.7 µM |  |  |  |  | 86% | 28.97% | 69.22% | 59% |  | 
5 | CCCCCCCCCCCCCCC[C@@H]1C[C@@H]2C[C@@H](CC(=O)O2)O1 |  |  |  |  | 39.1 µM | 39.1 µM | 39.1 µM | 39.1 µM |  |  |  |  |  |  |  |  | inactive | inactive
